The values that follow come from patent US12508275B2, “Neomycin based compounds, and pharmaceutical use thereof” (UNIVERSITÉ COTE D'AZUR, priority 2019, dated 2025).

For one data set, the system named is NESTIN expression in GB5. Briefly: NESTIN expression by immunofluorescence in GB5. Format: cell-based, human. As to conditions: GB5, seven days. Here is the method: FIG. 2: Compounds 9a-b and 18a-b effect on stemness marker expression, clonal expansion and mitosis in GB5 cells. (A) NESTIN expression was assessed by immunofluorescence in GB5 treated with increasing amount of Compounds 9a-b and 18a. The number of NESTIN positive cells was counted for each treatment and express as percentage of the control (100%). The results are the meaning of at least two separate experiments. […] (C) Clonal expansion analysis was performed with GB5 cells as described in the material and method section. Two and three weeks later, the number of spheroids is counted and reported as percentage of the initial number of cells in the well. The results are the meaning of a minimum of two separate experiments. (D) The number of mitosis in the culture was determined by the detection of the number of cells positive for histone H3 phosphorylated on ser-10 (H3-ser10). H3-ser10 expression was assessed by immunofluorescence in GB5 treated with increasing amount of Compounds 9a-b and 18a. The number of positive cells was counted for each treatment and express as percentage of the control (100%). The results are the meaning of at least two separate experiments.
III—Immunofluorescence assay: TG6 and GB5 were seeded at 2000 cells/well in 24 wells plate in NS34+ alone or containing 5, 7.5, 10, 12.5, 15, 20 and 25 uM of Compounds 9a-b and 18a-b. Cultures were incubated 4 days and the cells were fixed with 4% paraformaldehyde for 10 min at room temperature then washed with PBS. Cells were then incubated with ammonium chloride at 20 mM 5 min at room temperature and washed 5 times with PBS. Blocking and hybridization were realized in PBS containing 10% FCS and 0.1% Triton X100. Anti-Nestin and anti-H3Phospho serine 10 antibodies were incubated 2 hours at room temperature then washed with PBS. Fluorescence coupled secondary antibodies and Hoechst 33342 nuclei counterstaining reagent were hybridized one hour at room temperature. Cells were mounted with anti-fading agent then imaged, counted and quantified using fluorescent microscopy (TiE Nikon) and NiS software (Nikon).
Patient derived GSC (GB5) have been treated during seven days, with growing concentrations of compounds that have been capable of inducing changes of GSC morphology. To assess the consequence on stemness maintenance, we observed, by immunofluorescence, the expression of stemness and progenitor cells such as the NESTIN protein. […] The strongest effect has been obtained with Compounds 9a treatment (IC50=10 uM).

Data set [1] relates to human hepatocytes (HEPRG). The data set is described as follows: XTT toxicity assay on human hepatocytes. Format: cell-based. Here is the method: (§1) FIG. 4: Determination of compound toxicity on GSC and normal human cells. (A) GB5 were incubated with growing concentration of Compounds 9a-b and 18a. (B) human normal neural stem cell (NNSC), human normal kidney cells (NHEK), human normal hepatocytes (HEPRG) and (C) human endothelial cells (HUVEC) were treated with growing concentration of Compound 9a. 7 days later, the cells were subjected to an XTT assays as described in the method section. The results are the meaning of at least two separate experiments. Cell death was confirmed by trypan blue staining (not shown).
HepaRG™ are terminally differentiated hepatic cells derived from a human hepatic progenitor cell that retains many characteristics of primary human hepatocytes. HepaRG were grown in William's E Medium supplemented with Tox medium supplement and glutamax.
(§2) V—Toxicity tests: NNSC, GB5, TG6, HEK293, and HepaRG, HUVEC were seeded at 2000 cells/well in 96 wells plate in their respective culture mediums alone or containing growing concentration from 10 to 500 uM of Compounds 9a-b. Cultures were incubated 4 days and the cellular toxicity has been evaluated by XTT assays. Cell viability has been also assessed by counting living and dead cells with trypan blue staining.
XTT assays allows, through cell metabolism measurement, to determine a cytotoxic/cytostatic effects. […]

For data set [2], the system named is GSC expressing a luciferase gene (GB1-luc) brain tumors. Briefly: Orthotopic GB1-luc xenograft, treatment of already formed tumors. In kind it is in vivo, nude mice. As to conditions: 7.5 mg/kg three times a week, live imaging, vs DMSO; 11th week P value=0,017. Here is the method:
FIG. 3: Nude mice were orthotopically xenografted by luminescent patient derived GSC. (A-B) Two weeks following injections, mice were intraperitoneally injected with 10 mg/kg (n=4), 7.5 mg/kg (n=4) or 5 mg/kg (n=4) of Compound 9a or vehicle alone as control (ctl n=10). A) graphical representation of the average of tumor growth in the control group (n=10) and in each Compound 9a treated groups. B) Survival of the whole population of mice of the untreated and treated groups were compared using a log rank test according to Kaplan Meier method. (R command, see World Wide Web: biostatgv.sentiweb.fr/?module=tests/surv). The solid line represents the survival rate of control untreated mice. The dotted line represents the survival rate of mice treated by compound 9a. C) Mice treatment with compound 9a when the tumors were already formed. Tumor growth representation in mice, treated either with DMSO (control: -♦-) or Compound 9a (-▪-). Tumor growth was controlled every week by live imaging. The solid line represents the tumor growth in control untreated mice. The dotted line represents the tumor growth in mice treated by compound 9a.
To further determine whether Compound 9a might also alter tumor growth of tumors that were already formed before treatment, 50000 GSC expressing a luciferase gene (GB1-luc) for luminescent live imaging were injected in the brain of 12 nude mice. […]

The test system of data set [3] is OCT4, NANOG, SOX2 expression in GB5. Briefly: OCT4, NANOG, SOX2 pluripotency marker immunofluorescence in GB5. In kind it is cell-based, human. Particulars: GB5, 20 uM.
For another data set, the system named is GB5. Briefly: XTT toxicity assay on GSC (GB5). In kind it is cell-based. On the procedure: as §1
II—XTT assay: TG6 and GB5 were seeded at 2000 cells/well in 96 wells plate in NS34+ alone or containing 10, 20, 25, 50 and 100 uM of Compounds 9a-b and 18a-b. Cultures were incubated 4 days and the cell proliferation was evaluated as indicated by the manufacturer.
as §2
XTT assays allows, through cell metabolism measurement, to determine a cytotoxic/cytostatic effects. Compounds 9a-b and 18a were tested for their eventual toxicity by XTT assays as described in the material and method section. At the working concentrations 10 to 25 uM, the compounds are not toxic for GSC (FIG. 4A). […] Compound 9a toxicity was further tested on normal neural stem cells (NNSC), human kidney (NHEK), human hepatocytes (HEPRG) and human endothelial cells (HUVEC). The compound is not toxic on NNSC, NHEK, HEPRG and HUVEC cells when used between 10 to 50 uM. At 100 uM and above, Compound 9a was toxic (FIG. 4).
Background: Formazan colour is commonly taken as a measure of viable cells.

Data set [4] deals with normal neural stem cells (NNSC). Briefly: XTT toxicity assay on normal neural stem cells. In kind it is cell-based. On the procedure:
as §1, §2
XTT assays allows, through cell metabolism measurement, to determine a cytotoxic/cytostatic effects. Compounds 9a-b and 18a were tested for their eventual toxicity by XTT assays as described in the material and method section. At the working concentrations 10 to 25 uM, the compounds are not toxic for GSC (FIG. 4A). […]

By IC50 is commonly meant the concentration that gives 50% inhibition. A high value points to weaker potency in that assay. `NCCCCNCCCNC(=O)c1csc(-c2csc(CCNC(=O)CCc3cn(CC4OC(OC5C(O)C(N)CC(N)C5OC5OC(CN)C(O)C(O)C5N)C(O)C4OC4OC(CN)C(O)C(O)C4N)nn3)n2)n1` (stereo not shown) [Compound 9a, N-(3-((4-Aminobutyl)amino)propyl)-2′-(2-(3-(1-methyl-1H-1,2,3-triazol-4-yl)propanamido)ethyl)-[2,4′-bithiazole]-4-carboxamide-neomycin]: the NESTIN expression entry in the data set on NESTIN expression in GB5 (growing concentrations) is recorded as “drop in NESTIN expression”. The molecule also had an IC50 in the data set with NESTIN expression in GB5 (Homo sapiens, 168 h) of 10 µM. Also, the “toxicity (XTT)” value was “toxic” in data set [1] (100 uM and above); “not toxic” in data set [1] (between 10 to 50 uM); “toxic” in data set [4] (100 uM and above); “not toxic” in data set [4] (between 10 to 50 uM). Besides, the “growth of tumors already formed before treatment” value in data set [2] was “repressed tumor growth”. The “OCT4, NANOG and SOX2 expression” value in data set [3] is “down regulation”. Further, the “toxicity for GSC (XTT)” value is “relative toxicity” in the data set with GB5 (GB5, 50 uM and higher); “not toxic” with GB5 (GB5, 10 to 25 uM).
